Starred links: 1 amine or outer side, 2 acyl side, 3 side chain; linkers in the order of their positions; H or OH if unused. Non-standard residues stand in square brackets, D forms with d. Residues, ends and D or L forms follow the SMILES beside them. *: point of attachment. dPhe(4-Cl) = N[C@H](Cc1ccc(Cl)cc1)C(=O)O; d2Nal = N[C@H](Cc1ccc2ccccc2c1)C(=O)O; NMeY = CN[C@@H](Cc1ccc(O)cc1)C(=O)O; Ethylenediamine = C(CN[*:2])N[*:1]; NHCH2(2-pyridyl) = c1ccc(CN*)nc1; d3Pal = N[C@H](Cc1cccnc1)C(=O)O; Nicotinoyl = O=C(c1cccnc1)*; X6 = N=C(N)NCCCCCCCCN*; NH(CH2)3NH2 = NCCCN*; X7 = CN1CCCC1CCN*
Target: T1, LH release from rat pituitary cells (Rattus norvegicus, UniProt P30969)
T1 sequence (P30969 1-327): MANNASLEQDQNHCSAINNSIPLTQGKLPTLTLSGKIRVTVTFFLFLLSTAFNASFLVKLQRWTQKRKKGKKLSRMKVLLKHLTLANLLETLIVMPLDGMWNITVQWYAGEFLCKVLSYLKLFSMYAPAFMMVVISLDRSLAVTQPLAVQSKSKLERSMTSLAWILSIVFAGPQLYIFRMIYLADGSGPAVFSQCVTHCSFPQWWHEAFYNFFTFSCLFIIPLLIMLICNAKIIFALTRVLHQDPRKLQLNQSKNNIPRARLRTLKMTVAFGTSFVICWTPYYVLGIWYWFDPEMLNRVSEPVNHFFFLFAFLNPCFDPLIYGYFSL
Assay: in vitro inhibition of LH release from rat pituitary cells (pA2)
Type: cell-based
Details: pA2 = negative logarithm of antagonist concentration required to shift the response curve of the agonist leuprolide to two-fold higher concentration
Experimental: Representative compounds of the present invention were evaluated in vitro for inhibition of LH release from rat pituitary cells (pA2). Methods for the assay procedures arc described by F. Haviv, et al. J. Med. Chem., 32:2340-2344 (1989). Values of pA2 are the negative logarithms of the concentration of the particular antagonist test compound required to shift the response curve produced by the agonist leuprolide to two-fold higher concentration. Typically values of 7.0 or greater are indicative of good LHRH antagonist potency, with values of 8.0 or greater being preferred. Leuprolide LHRH agonist, disclosed and claimed in U.S. Pat. No. 4,005,063, has the structure 5-oxo-Pro^1 -His^2 -Trp^3 -Ser^4 -Tyr^5 -D-Leu^6 -Leu^7 -Arg^8 -Pro^9 -NHEt.

Compound	LHRH antagonist potency (pA2)
CC(=O)N[C@H](Cc1ccc2ccccc2c1)C(=O)N[C@H](Cc1ccc(Cl)cc1)C(=O)N[C@H](Cc1cccnc1)C(=O)N[C@@H](CO)C(=O)N(C)[C@@H](Cc1ccc(O)cc1)C(=O)N[C@H](CCCCNC(=O)c1cccnc1)C(=O)N[C@@H](CC(C)C)C(=O)NCCN [Example 2, NAcD2Nal-D4ClPhe-D3Pal-Ser-NMeTyr-DLys(Nic)-Leu-NH--(CH2)2 NH2] (Ac-[d2Nal][dPhe(4-Cl)][d3Pal]S[NMeY][dK](Nicotinoyl)L-Ethylenediamine)	9.58
CC(=O)N[C@H](Cc1ccc2ccccc2c1)C(=O)N[C@H](Cc1ccc(Cl)cc1)C(=O)N[C@H](Cc1cccnc1)C(=O)N[C@@H](CO)C(=O)N(C)[C@@H](Cc1ccc(O)cc1)C(=O)N[C@H](CCCCNC(=O)c1cccnc1)C(=O)N[C@@H](CC(C)C)C(=O)NCCCN [Example 15, NAcD2Nal-D4ClPhe-D3Pal-Ser-NMeTyr-DLys(Nic)-Leu-NH--(CH2)3 NH2] (Ac-[d2Nal][dPhe(4-Cl)][d3Pal]S[NMeY][dK](Nicotinoyl)L-{NH(CH2)3NH2})	8.70
CC(=O)N[C@H](Cc1ccc2ccccc2c1)C(=O)N[C@H](Cc1ccc(Cl)cc1)C(=O)N[C@H](Cc1cccnc1)C(=O)N[C@@H](CO)C(=O)N(C)[C@@H](Cc1ccc(O)cc1)C(=O)N[C@H](CCCCNC(=O)c1cccnc1)C(=O)N[C@@H](CC(C)C)C(=O)NCc1ccccn1 [Example 23, NAcD2Nal-D4ClPhe-D3Pal-Ser-NMeTyr-DLys(Nic)-Leu-NH--CH2 -(2-pyridine)] (Ac-[d2Nal][dPhe(4-Cl)][d3Pal]S[NMeY][dK](Nicotinoyl)L-{NHCH2(2-pyridyl)})	9.18
CC(=O)N[C@H](Cc1ccc2ccccc2c1)C(=O)N[C@H](Cc1ccc(Cl)cc1)C(=O)N[C@H](Cc1cccnc1)C(=O)N[C@@H](CO)C(=O)N(C)[C@@H](Cc1ccc(O)cc1)C(=O)N[C@H](CCCCNC(=O)c1cccnc1)C(=O)N[C@@H](CC(C)C)C(=O)NCCC1CCCN1C (stereo partly drawn) [Example 30, NAcD2Nal-D4ClPhe-D3Pal-Ser-NMeTyr-DLys(Nic)-Leu-NH--CH2 --CH2 -[2-(1-methyl)pyrrolidine]] (Ac-[d2Nal][dPhe(4-Cl)][d3Pal]S[NMeY][dK](Nicotinoyl)L-X7)	9.80
CC(=O)N[C@H](Cc1ccc2ccccc2c1)C(=O)N[C@H](Cc1ccc(Cl)cc1)C(=O)N[C@H](Cc1cccnc1)C(=O)N[C@@H](CO)C(=O)N(C)[C@@H](Cc1ccc(O)cc1)C(=O)N[C@H](CCCCNC(=O)c1cccnc1)C(=O)N[C@@H](CC(C)C)C(=O)NCCCCCCCCNC(=N)N [Example 20, NAcD2Nal-D4ClPhe-D3Pal-Ser-NMeTyr-DLys(Nic)-Leu-NH--(CH2)8 NH(C=NH)NH2] (Ac-[d2Nal][dPhe(4-Cl)][d3Pal]S[NMeY][dK](Nicotinoyl)L-X6)	8.39
